Assay results published in patent US20230183228A1, “SUBSTITUTED PYRAZOLYL COMPOUNDS AND METHODS OF USE THEREOF” (Chinook Therapeutics Canada, Inc., priority 2020, published 2023).
Marks after values point to notes of the source that are not given here.

Assays:
[1] = target: T1, human recombinant C-terminal His-tagged LDHA (Homo sapiens, UniProt P00338); test: Human LDHA enzyme assay, human serum albumin (HSA) shift; type: biochemical; conditions: final concentration 10% HSA
T1 construct: His (C)
Procedure: (§1) Compounds were dissolved in DMSO and preincubated with human recombinant C-terminal His-tagged LDHA (0.070 μg/mL) for 10 min at room temperature in assay buffer consisting 50 mM Tris, pH 7.5 and 100 mM NaCl in black walled, clear bottom, non-binding 96-well plates. Equal volumes of substrate solution containing 100 μM of pyruvate and 100 μM of NADH in assay buffer was added to each well (final concentration 0.035 μg/mL enzyme, 50 μM pyruvate, 50 μM NADH, and 1% DMSO). For human serum albumin (HSA) shift assay, the compounds were preincubated with the enzyme in assay buffer containing 20% HSA before substrate addition (final concentration 10% HSA). The reaction was monitored at 340 nm on a plate reader (Molecular Devices) in kinetic mode for 15 min. The rate of the reaction was determined by plotting absorbance vs time.

[2] = Liver and plasma concentrations in c57/bl6 mice; type: in vivo; conditions: 20 mg/kg PO, 4 h
Procedure: [The procedure below names another organism; the source says it served here with some conditions changed.] (§2) Plasma and liver (target organ) concentrations of test compounds were determined in rats following a single per os (PO) administration of the test compounds. Male Sprague Dawley rats (6-8 weeks of age, Charles River Labs) were fasted overnight and a single dose of test compounds (10 mg/kg; as a suspension in 0.5% methyl cellulose) was administered by PO gavage. Rats were then sacrificed at 4 and 24 h after administration of the test compounds, and plasma and liver tissue samples were collected. Liver tissue samples were homogenized in 5 volumes of water:acetonitrile (50/50; v/v) mixture using a bead mill homogenizer. Plasma and liver homogenate samples were processed by protein precipitation using acetonitrile and the concentrations of the test compounds were determined by liquid chromatography-tandem mass spectrometry (SciEx triple quad 5500+ with Exion UPLC).
(§3) Liver and plasma exposures at the 4 h and 24 h timepoints for the various compounds are described in Table 5 below. Measured compound concentrations are as follows: ++++>10 μM; 10 μM≥+++>5 μM; 5 μM≥++>1 μM; 1 μM≥+>0.25 μM; and 0.25 μM≥−.

[3] = system: fresh primary mouse hepatocytes; test: Primary mouse hepatocyte assay (lactate production); type: cell-based
Procedure: Compounds were evaluated in an ex vivo assay consisting of fresh primary mouse hepatocytes. Hepatocytes were isolated from wild type mice (C57BL/6NCrl from Charles River Labs) using a two-step collagenase perfusion technique which involves a sequential perfusion of anesthetized mice with Hanks' balanced salt solution and collagenase. Following isolation, viable wild type hepatocytes (0.1 M cells/well) were incubated with test compound in presence of pyruvate and compound potency was evaluated by measuring the lactate produced by the cells using liquid chromatography coupled to mass spectrometry. Chromatographic separation was achieved on an XDB-C18 4.6×50 mm column (Agilent, Cat #927975-902) at a flow rate of 1 mL/min Mobile phase A consisted of 0.1% formic acid in water and mobile phase B consisted of acetonitrile. A gradient program was initiated starting at 5% B which was held for 1 minutes, then ramped from 5% to 95% B over 1 minute. After holding at 95% B for 1 minute, the program changed back to 5% B. The column was equilibrated with 5% B for […] before the next injection. The mass spectrometer was operated in negative mode with electrospray ionization. The following transition along with their collision energy (CE) were used: 89→43 (CE: −16 V) for lactate and 92→45 (CE: −16 V) for ^13C3-Lactate (internal standard).

[4] = target: T1, human recombinant C-terminal His-tagged LDHA; test: Human LDHA enzyme assay; type: biochemical; conditions: 50 μM pyruvate, 50 μM NADH, no HSA
Procedure: as §1

[5] = Liver-targeted tissue distribution profile study in rats; type: in vivo, Sprague Dawley rats; conditions: rat, single 10 mg/kg PO
Procedure: as §2, §3

[6] = Run at 0.4M cells/well concentration of hepatocytes

SMILES | IC50 [1] | Measured Compound Concentrations Liver - 4 h [2] | Measured Compound Concentrations Plasma - 4 h [2] | IC50 [3, 6] | IC50 [4] | IC50 ([3]; 0.1 M cells/well) | Measured Compound Concentrations Liver - 4 h [5] | Measured Compound Concentrations Liver - 24 h [5] | Measured Compound Concentrations Plasma - 4 h [5] | Measured Compound Concentrations Plasma - 24 h [5]
Cc1c(Cc2ccc(S(N)(=O)=O)c(F)c2)c(-c2ccc(F)cc2)nn1-c1nc(C(=O)O)cs1 [Example 3, 2-(4-(3-Fluoro-4-sulfamoylbenzyl)-3-(4-fluorophenyl)-5-methyl-1H-pyrazol-1-yl)thiazole-4-carboxylic acid] | 1 to 10 nM | ++++* (++++>10 μM) | −* (0.25 μM≥−) | 250 to 1000 nM | < 1 nM |  |  |  |  | 
CCc1c(Cc2ccc(S(N)(=O)=O)cc2)c(-c2ccc(F)cc2)nn1-c1nc(C(=O)O)cs1 [Example 4, 2-(5-ethyl-3-(4-fluorophenyl)-4-(4-sulfamoylbenzyl)-1H-pyrazol-1-yl)thiazole-4-carboxylic acid] | 10 to 100 nM | ++* (5 μM≥++>1 μM) | −* (0.25 μM≥−) | 250 to 1000 nM | 1 to 10 nM |  |  |  |  | 
NS(=O)(=O)c1ccc(Cc2c(-c3ccc(F)cc3)nn(-c3nc(C(=O)O)cs3)c2CC2CC2)cc1 [Example 5, 2-(5-(cyclopropylmethyl)-3-(4-fluorophenyl)-4-(4-sulfamoylbenzyl)-1H-pyrazol-1-yl)thiazole-4-carboxylic acid] | 1 to 10 nM | ++* (5 μM≥++>1 μM) | −* (0.25 μM≥−) | 250 to 1000 nM | < 1 nM |  |  |  |  | 
NS(=O)(=O)c1ccc(Cc2c(-c3ccc(F)cc3)nn(-c3nc(C(=O)O)cs3)c2CCC2CC2)cc1 [Example 6, 2-(5-(2-cyclopropylethyl)-3-(4-fluorophenyl)-4-(4-sulfamoylbenzyl)-1H-pyrazol-1-yl)thiazole-4-carboxylic acid] | 10 to 100 nM | ++* (5 μM≥++>1 μM) | −* (0.25 μM≥−) | 250 to 1000 nM | < 1 nM |  |  |  |  | 
CC(C)Oc1cc(-c2nn(-c3nc(C(=O)O)cs3)c(CC3CC3)c2Cc2ccc(S(N)(=O)=O)c(F)c2)ccc1F [Example 7, 2-(5-(Cyclopropylmethyl)-3-(4-fluoro-3-isopropoxyphenyl)-4-(3-fluoro-4-sulfamoylbenzyl)-1H-pyrazol-1-yl)thiazole-4-carboxylic acid] | 1 to 10 nM | ++* (5 μM≥++>1 μM) | −* (0.25 μM≥−) | 250 to 1000 nM | < 1 nM |  |  |  |  | 
NS(=O)(=O)c1ccc(Cc2c(-c3cccc(C(F)(F)F)c3)nn(-c3nc(C(=O)O)cs3)c2CC2CC2)cc1F [Example 18, 2-(5-(cyclopropylmethyl)-4-(3-fluoro-4-sulfamoylbenzyl)-3-(3-(trifluoromethyl)phenyl)-1H-pyrazol-1-yl)thiazole-4-carboxylic acid] | 1 to 10 nM |  |  |  | < 1 nM | < 100 nM | +++ (10 μM≥+++>5 μM) | − (0.25 μM≥−) | − (0.25 μM≥−) | − (0.25 μM≥−)
NS(=O)(=O)c1ccc(Cc2c(-c3cccc(OC(F)(F)F)c3)nn(-c3nc(C(=O)O)cs3)c2CC2CC2)cc1F [Example 19, 2-(5-(cyclopropylmethyl)-4-(3-fluoro-4-sulfamoylbenzyl)-3-(3-(trifluoromethoxy)phenyl)-1H-pyrazol-1-yl)thiazole-4-carboxylic acid] | 1 to 10 nM |  |  |  | < 1 nM | 100 to 250 nM | +++ (10 μM≥+++>5 μM) | − (0.25 μM≥−) | − (0.25 μM≥−) | − (0.25 μM≥−)
NS(=O)(=O)c1ccc(Cc2c(-c3ccccc3)nn(-c3nc(C(=O)O)cs3)c2CC2CC2)cc1F [Example 20, 2-(5-(cyclopropylmethyl)-4-(3-fluoro-4-sulfamoylbenzyl)-3-phenyl-1H-pyrazol-1-yl)thiazole-4-carboxylic acid] | 1 to 10 nM |  |  |  | < 1 nM | < 100 nM | ++++ (++++>10 μM) | − (0.25 μM≥−) | − (0.25 μM≥−) | − (0.25 μM≥−)
NS(=O)(=O)c1ccc(Cc2c(-c3ccc(C(F)F)cc3)nn(-c3nc(C(=O)O)cs3)c2CC2CC2)cc1F [Example 21, 2-(5-(cyclopropylmethyl)-3-(4-(difluoromethyl)phenyl)-4-(3-fluoro-4-sulfamoylbenzyl)-1H-pyrazol-1-yl)thiazole-4-carboxylic acid] | 10 to 100 nM |  |  |  | < 1 nM | < 100 nM | ++ (5 μM≥++>1 μM) | − (0.25 μM≥−) | − (0.25 μM≥−) | − (0.25 μM≥−)
NS(=O)(=O)c1ccc(Cc2c(-c3cccc(OCC(F)(F)F)c3)nn(-c3nc(C(=O)O)cs3)c2CC2CC2)cc1F [Example 22, 2-(5-(cyclopropylmethyl)-4-(3-fluoro-4-sulfamoylbenzyl)-3-(3-(2,2,2-trifluoroethoxy)phenyl)-1H-pyrazol-1-yl)thiazole-4-carboxylic acid] | 1 to 10 nM |  |  |  | < 1 nM | < 100 nM | ++ (5 μM≥++>1 μM) | − (0.25 μM≥−) | − (0.25 μM≥−) | − (0.25 μM≥−)
NS(=O)(=O)c1ccc(Cc2c(-c3ccccc3F)nn(-c3nc(C(=O)O)cs3)c2CC2CC2)cc1F [Example 25] | 10 to 100 nM |  |  |  | < 1 nM | 100 to 250 nM | +++ (10 μM≥+++>5 μM) | − (0.25 μM≥−) | − (0.25 μM≥−) | − (0.25 μM≥−)
NS(=O)(=O)c1ccc(Cc2c(-c3cc(Cl)cc(Cl)c3)nn(-c3nc(C(=O)O)cs3)c2CC2CC2)cc1F [Example 26, 2-(5-(cyclopropylmethyl)-3-(3,5-dichlorophenyl)-4-(3-fluoro-4-sulfamoylbenzyl)-1H-pyrazol-1-yl)thiazole-4-carboxylic acid] | 10 to 100 nM |  |  |  | < 1 nM | 100 to 250 nM | ++ (5 μM≥++>1 μM) | − (0.25 μM≥−) | − (0.25 μM≥−) | − (0.25 μM≥−)
NS(=O)(=O)c1ccc(Cc2c(-c3cc(F)c(F)c(F)c3)nn(-c3nc(C(=O)O)cs3)c2CC2CC2)cc1F [Example 28, 2-(5-(Cyclopropylmethyl)-4-(3-fluoro-4-sulfamoylbenzyl)-3-(3,4,5-trifluorophenyl)-1H-pyrazol-1-yl)thiazole-4-carboxylic acid] | 1 to 10 nM |  |  |  | < 1 nM | < 100 nM | +++ (10 μM≥+++>5 μM) | − (0.25 μM≥−) | − (0.25 μM≥−) | − (0.25 μM≥−)
